Numbering of substitutions follows the chain as printed. pEC50: −log10 of the molar value.
Columns and labels:
[1] = molecular target: T1, Muscarinic acetylcholine receptor M1 (Homo sapiens, UniProt P11229); experiment: Positive allosteric modulation of human muscarinic M1 receptor expressed in CHO cells assessed as basal and acetylcholine-stimulated Ca2+ level by FLIPR assay; type: functional, cell-based
T1 sequence (P11229 whole entry): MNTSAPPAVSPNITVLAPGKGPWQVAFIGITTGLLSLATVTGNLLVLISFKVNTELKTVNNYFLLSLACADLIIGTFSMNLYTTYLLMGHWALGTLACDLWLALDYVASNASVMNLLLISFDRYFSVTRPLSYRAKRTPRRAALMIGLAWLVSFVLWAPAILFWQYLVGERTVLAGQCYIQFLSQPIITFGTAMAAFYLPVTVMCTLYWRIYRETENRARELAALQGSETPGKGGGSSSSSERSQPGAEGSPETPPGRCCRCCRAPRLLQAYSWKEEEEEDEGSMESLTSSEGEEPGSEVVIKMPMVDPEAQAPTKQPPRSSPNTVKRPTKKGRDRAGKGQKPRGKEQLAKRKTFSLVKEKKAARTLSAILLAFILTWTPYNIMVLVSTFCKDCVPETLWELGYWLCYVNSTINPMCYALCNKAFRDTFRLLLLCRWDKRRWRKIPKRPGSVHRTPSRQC

[2] = molecular target: T2, Muscarinic acetylcholine receptor M1 (Rattus norvegicus, UniProt P08482); experiment: Positive allosteric modulation of rat muscarinic M1 receptor expressed in CHO cells assessed as basal and acetylcholine-stimulated Ca2+ level by FLIPR assay; type: functional, cell-based
T2 sequence (P08482 whole entry): T1 sequence (P11229 whole entry) with A5V, T254S, P309S, R320K, A337G, I413V

Which results are given for `Cn1ncc2cc(Cn3cc(C(=O)N[C@H]4COCC[C@@H]4O)c4ncccc43)ccc21`?
pEC50 [1]: 7.15; pEC50 [2]: 6.79

`Cn1cc(-c2ccc(Cn3cc(C(=O)N[C@H]4COCC[C@@H]4O)c4ncccc43)cc2)cn1` was tested. Which pEC50 [1] did it give?
Its pEC50 is 7.95.

And the pEC50 [2]?
Its pEC50 is 7.86.

How did the pEC50 [1] turn out when `Cn1cc(-c2ccc(Cn3cc(C(=O)N[C@H]4CCOC[C@@]4(C)O)c4ncccc43)c(F)c2)cn1` was run?
The pEC50 was 7.32.

What about the pEC50 [2] of the same molecule?
The pEC50 was 7.20.

What does the source list for `Cn1cc(-c2ccc(Cn3cc(C(=O)N[C@H]4COCC[C@@H]4O)c4ncccc43)cn2)cn1`?
pEC50 [1]: 7.46; pEC50 [2]: 7.15

Which results are given for `Cn1cc(-c2ccc(Cn3cc(C(=O)N[C@H]4CCOC[C@@H]4O)c4ncccc43)c(F)c2)cn1`?
pEC50 [1]: 7.55; pEC50 [2]: 7.23

With `Cn1cc(-c2ccc(Cn3cc(C(=O)N[C@H]4COCC[C@@H]4O)c4ncccc43)cc2F)cn1` as the molecule, how does the pEC50 [1] read?
Its pEC50 is 7.81.

And the pEC50 [2]?
The pEC50 was 7.74.

What does the source list for `CNC(=O)c1ccc(Cn2cc(C(=O)N[C@H]3COCC[C@@H]3O)c3ncccc32)cc1`?
pEC50 [1]: 8.04; pEC50 [2]: 7.74

— ChEMBL document CHEMBL3608283, “Pyrrolopyridine or Pyrazolopyridine Derivatives” (ACS Med Chem Lett, 2015)
